Measured values: patent US6737383B1, “Herbicidal oxadiazolidines” (priority 1999, dated 2004)

Key:
bedstraw = experiment: Test B pre/postemergence bedstraw; assay type: in vivo, Galium aparine; conditions: for Bedstraw plant response rating: Postemergence
Method in brief: (§1)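 Response is a visual 0-to-10 score relative to untreated plants, where 0 means no effect and 10 means complete control, taken twelve to sixteen days after application. Treatments went onto soil at planting and onto foliage of 1- to 4-leaf plants, using a surfactant-containing non-phytotoxic solvent.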

blackgrass = experiment: Test B pre/postemergence blackgrass; assay type: in vivo, Alopecurus myosuroides
Method in brief: as §1

surinam grass = experiment: Test B pre/postemergence surinam grass; assay type: in vivo, Brachiaria decumbens
Method in brief: as §1

corn = experiment: Test B pre/postemergence corn; assay type: in vivo, Zea mays
Method in brief: as §1

crabgrass = experiment: Test B pre/postemergence crabgrass; assay type: in vivo, Digitaria sanguinalis
Method in brief: as §1

pigweed = experiment: Test B pre/postemergence pigweed; assay type: in vivo, Amaranthus retroflexus
Method in brief: as §1

rape = experiment: Test B pre/postemergence rape; assay type: in vivo, Brassica napus
Method in brief: as §1

soybean = experiment: Test B pre/postemergence soybean; assay type: in vivo, Glycine max
Method in brief: as §1

sugar beet = experiment: Test B pre/postemergence sugar beet; assay type: in vivo, Beta vulgaris
Method in brief: as §1

velvetleaf = experiment: Test B pre/postemergence velvetleaf; assay type: in vivo, Abutilon theophrasti
Method in brief: as §1

wheat = experiment: Test B pre/postemergence wheat; assay type: in vivo, Triticum aestivum
Method in brief: as §1

wild oat = experiment: Test B pre/postemergence wild oat; assay type: in vivo, Avena fatua
Method in brief: as §1

purple nutsedge = experiment: Test B pre/postemergence purple nutsedge; assay type: in vivo, Cyperus rotundus
Method in brief: as §1

rice = experiment: Test B flood test rice; assay type: in vivo, Oryza sativa
Method in brief: (§2)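 Flood test on plants grown to the 2-leaf stage; treated plants kept in greenhouse twelve to sixteen days, then visually rated against controls on a 0 (no effect) to 10 (complete control) scale.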

smallflower flatsedge = experiment: Test B flood test smallflower flatsedge; assay type: in vivo, Cyperus difformis
Method in brief: as §2

duck salad = experiment: Test B flood test duck salad; assay type: in vivo, Heteranthera limosa
Method in brief: as §2

[1] = Preemergence, Rate 62 g/ha, scale of 0 to 10 where 0 is no effect and 10 is complete control
[2] = Postemergence, Rate 125 g/ha, scale 0 to 10, 0 is no effect, 10 is complete control
[3] = Postemergence, Rate 250 g/ha, scale 0 to 10
[4] = Postemergence, Rate 500 g/ha, scale of 0 to 10 where 0 is no effect and 10 is complete control
[5] = Preemergence, Rate 125 g/ha, scale 0 to 10, 0 is no effect, 10 is complete control
[6] = Preemergence, Rate 250 g/ha, scale 0 to 10, 0 is no effect, 10 is complete control
[7] = Preemergence, Rate 500 g/ha, scale 0 to 10, 0 is no effect, 10 is complete control
[8] = Rate 62 g/ha, Postemergence, scale 0 to 10, 0 no effect, 10 complete control
[9] = Rate 62 g/ha, flood test species, Pre-emergence, visual evaluation after twelve to sixteen days
[10] = Rate 125 g/ha, under heading Pre-emergence, flood test species, visual evaluation after twelve to sixteen days
[11] = Rate 250 g/ha, Pre-emergence (flood test species), scale 0 to 10, 0 is no effect, 10 is complete control
[12] = Rate 500 g/ha, Pre-emergence, flood test species, scale 0 to 10 (0 no effect, 10 complete control)

SMILES: CC(C)N(C(=O)n1oc(=O)n(Cc2cnc(Cl)s2)c1=O)c1ccc(F)cc1 [Compound 482]
- Bedstraw plant response rating (bedstraw; Rate 125 g/ha, scale 0 to 10, 0 is no effect, 10 is complete control): 0
- Bedstraw plant response rating (bedstraw; Rate 250 g/ha, scale 0 to 10): 0
- Plant response rating, Bedstraw (bedstraw; [1]): 0
- Bedstraw plant response rating (bedstraw; Rate 62 g/ha, scale 0 to 10, 0 no effect, 10 complete control): 0
- Blackgrass plant response rating (blackgrass; [2]): 0
- Blackgrass plant response rating (blackgrass; [3]): 0
- Blackgrass plant response rating (blackgrass; [4]): 0
- Plant response rating, Blackgrass (blackgrass; [1]): 0
- Blackgrass plant response rating (blackgrass; [5]): 0
- Blackgrass plant response rating (blackgrass; [6]): 0
- Blackgrass plant response rating (blackgrass; [7]): 4
- Blackgrass plant response rating (blackgrass; [8]): 0
- B. signalgrass plant response rating (surinam grass; [2]): 0
- B. signalgrass plant response rating (surinam grass; Postemergence, Rate 250 g/ha, scale 0 to 10, 0 no effect, 10 complete control): 0
- B. signalgrass plant response rating (surinam grass; [4]): 0
- Plant response rating, B. signalgrass (surinam grass; [1]): 0
- B. signalgrass plant response rating (surinam grass; [5]): 0
- B. signalgrass plant response rating (surinam grass; [6]): 0
- B. signalgrass plant response rating (surinam grass; [7]): 0
- B. signalgrass plant response rating (surinam grass; [8]): 0
- Corn plant response rating (corn; [2]): 0
- Corn plant response rating (corn; [3]): 0
- Corn plant response rating (corn; [4]): 0
- Plant response rating, Corn (corn; [1]): 0
- Corn plant response rating (corn; [5]): 0
- Corn plant response rating (corn; [6]): 0
- Corn plant response rating (corn; [7]): 0
- Corn plant response rating (corn; [8]): 0
- Crabgrass plant response rating (crabgrass; [2]): 0
- Crabgrass plant response rating (crabgrass; [3]): 1
- Crabgrass plant response rating (crabgrass; [4]): 3
- Plant response rating, Crabgrass (crabgrass; [1]): 3
- Crabgrass plant response rating (crabgrass; [5]): 8
- Crabgrass plant response rating (crabgrass; [6]): 8
- Crabgrass plant response rating (crabgrass; [7]): 8
- Crabgrass plant response rating (crabgrass; [8]): 0
- Redroot pigweed plant response rating (pigweed; [2]): 0
- Redroot pigweed plant response rating (pigweed; [3]): 2
- Plant response rating, Redroot pigweed (pigweed; [1]): 0
- Redroot pigweed plant response rating (pigweed; [5]): 0
- Redroot pigweed plant response rating (pigweed; [6]): 0
- Redroot pigweed plant response rating (pigweed; [7]): 0
- Redroot pigweed plant response rating (pigweed; [8]): 0
- Rape plant response rating (rape; [2]): 0
- Rape plant response rating (rape; [3]): 0
- Plant response rating, Rape (rape; [1]): 0
- Rape plant response rating (rape; [5]): 0
- Rape plant response rating (rape; [6]): 0
- Rape plant response rating (rape; [7]): 0
- Rape plant response rating (rape; [8]): 0
- Soybean plant response rating (soybean; [2]): 1
- Soybean plant response rating (soybean; [3]): 1
- Plant response rating, Soybean (soybean; [1]): 0
- Soybean plant response rating (soybean; [5]): 0
- Soybean plant response rating (soybean; [6]): 0
- Soybean plant response rating (soybean; [7]): 0
- Soybean plant response rating (soybean; [8]): 1
- Sugarbeets plant response rating (sugar beet; [2]): 0
- Sugarbeets plant response rating (sugar beet; [3]): 0
- Plant response rating, Sugarbeets (sugar beet; [1]): 0
- Sugarbeets plant response rating (sugar beet; [5]): 0
- Sugarbeets plant response rating (sugar beet; [6]): 0
- Sugarbeets plant response rating (sugar beet; [7]): 0
- Sugarbeets plant response rating (sugar beet; [8]): 0
- Velvetleaf plant response rating (velvetleaf; [2]): 0
- Velvetleaf plant response rating (velvetleaf; [3]): 0
- Plant response rating, Velvetleaf (velvetleaf; [1]): 0
- Velvetleaf plant response rating (velvetleaf; [5]): 0
- Velvetleaf plant response rating (velvetleaf; [6]): 0
- Velvetleaf plant response rating (velvetleaf; [7]): 2
- Velvetleaf plant response rating (velvetleaf; [8]): 0
- Wheat plant response rating (wheat; [2]): 0
- Wheat plant response rating (wheat; [3]): 0
- Plant response rating, Wheat (wheat; [1]): 0
- Wheat plant response rating (wheat; [5]): 0
- Wheat plant response rating (wheat; [6]): 0
- Wheat plant response rating (wheat; [7]): 0
- Wheat plant response rating (wheat; [8]): 0
- Wild oats plant response rating (wild oat; [2]): 0
- Wild oats plant response rating (wild oat; [3]): 0
- Plant response rating, Wild oats (wild oat; [1]): 0
- Wild oats plant response rating (wild oat; [5]): 0
- Wild oats plant response rating (wild oat; [6]): 0
- Wild oats plant response rating (wild oat; [7]): 3
- Wild oats plant response rating (wild oat; [8]): 0
- Nutsedge plant response rating (purple nutsedge; [2]): 0
- Nutsedge plant response rating (purple nutsedge; [3]): 0
- Plant response rating, Nutsedge (purple nutsedge; [1]): 0
- Nutsedge plant response rating (purple nutsedge; [5]): 0
- Nutsedge plant response rating (purple nutsedge; [6]): 0
- Nutsedge plant response rating (purple nutsedge; [7]): 0
- Nutsedge plant response rating (purple nutsedge; [8]): 0
- Plant response rating, Rice (0 to 10 scale, 0 is no effect, 10 is complete control) (rice; [9]): 0
- Rice plant response rating (0 to 10 scale, 0 is no effect, 10 is complete control) (rice; [10]): 0
- Rice plant response rating (rice; [11]): 0
- Rice plant response rating (rice; [12]): 0
- Plant response rating, S. Flatsedge (0 to 10 scale, 0 is no effect, 10 is complete control) (smallflower flatsedge; [9]): 0
- S. Flatsedge plant response rating (0 to 10 scale, 0 is no effect, 10 is complete control) (smallflower flatsedge; [10]): 0
- S. Flatsedge plant response rating (smallflower flatsedge; [11]): 0
- S. Flatsedge plant response rating (smallflower flatsedge; [12]): 0
- Plant response rating, Ducksalad (0 to 10 scale, 0 is no effect, 10 is complete control) (duck salad; [9]): 0
- Ducksalad plant response rating (0 to 10 scale, 0 is no effect, 10 is complete control) (duck salad; [10]): 0
- Ducksalad plant response rating (duck salad; [11]): 0
- Ducksalad plant response rating (duck salad; [12]): 0
